Here are results for twelve molecules from paper PMC4718634, “Murine GPRC6A Mediates Cellular Responses to L-Amino Acids, but Not Osteocalcin Variants” (PLoS ONE, 2016).

The test system of assay [1] is GPRC6A. Particulars: ref [6] (supplement list); cited from earlier work. The source says:
(§1) Supplement pone.0146846.s004.docx, table 1 | column: Functional assay

A further assay has as its target T1, mGPRC6A (mouse GPRC6A) (Mus musculus, UniProt Q8K4Z6).
T1 sequence (Q8K4Z6 21-928): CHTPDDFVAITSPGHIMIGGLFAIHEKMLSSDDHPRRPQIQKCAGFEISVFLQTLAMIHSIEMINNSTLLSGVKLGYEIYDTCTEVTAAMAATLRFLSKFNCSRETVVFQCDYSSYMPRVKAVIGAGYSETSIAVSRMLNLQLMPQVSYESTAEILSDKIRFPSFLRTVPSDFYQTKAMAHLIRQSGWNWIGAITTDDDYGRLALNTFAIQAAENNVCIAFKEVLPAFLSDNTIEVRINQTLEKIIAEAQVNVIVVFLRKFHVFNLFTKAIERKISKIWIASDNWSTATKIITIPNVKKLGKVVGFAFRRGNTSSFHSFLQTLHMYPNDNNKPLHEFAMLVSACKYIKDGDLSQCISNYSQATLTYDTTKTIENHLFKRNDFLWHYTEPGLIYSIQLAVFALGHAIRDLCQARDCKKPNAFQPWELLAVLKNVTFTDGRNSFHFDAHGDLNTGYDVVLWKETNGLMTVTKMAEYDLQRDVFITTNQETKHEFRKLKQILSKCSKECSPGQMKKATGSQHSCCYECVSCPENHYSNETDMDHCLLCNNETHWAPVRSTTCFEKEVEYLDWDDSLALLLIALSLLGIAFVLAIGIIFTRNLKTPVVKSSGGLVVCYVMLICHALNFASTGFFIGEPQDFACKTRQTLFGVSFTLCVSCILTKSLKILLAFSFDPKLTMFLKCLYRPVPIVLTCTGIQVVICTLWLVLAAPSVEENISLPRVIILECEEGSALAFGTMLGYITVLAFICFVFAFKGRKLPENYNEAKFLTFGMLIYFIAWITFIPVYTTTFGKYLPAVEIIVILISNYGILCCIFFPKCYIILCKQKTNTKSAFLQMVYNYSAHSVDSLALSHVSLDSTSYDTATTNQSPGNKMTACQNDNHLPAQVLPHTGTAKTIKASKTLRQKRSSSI
Description: Ca^2+i mobilisation, FlpIn-TREx-HEK293-mGPRC6A cells. Format: cell-based. To be noted: for activity in calcium mobilisation assays: with co-expressed Gαq or GαqG66D. The procedure: pcDNA 5/FRT/TO constructs were isogenically integrated into a FlpIn-TREx-HEK293 cell line (Life Technologies). FlpIn-TREx-HEK293-mGPRC6A and FlpIn-TREx-HEK293-hGPRC6A cells were then selected using 600 μg/ml hygromycin and 5 μg/ml blasticidin and grown in culture medium consisting of Dulbecco’s Modified Eagle Medium (DMEM), supplemented with 10% (v/v) foetal bovine serum (FBS) at 37°C in 5% CO2 and were sub-cultured in a 1:3 ratio every 3–4 days. Cells were cultured overnight in the presence of 1 μg/ml tetracycline to induce GPRC6A expression. […] 48 h after transfection, cells were selected using 3 μg/ml puromycin and grown as above.
FlpIn-TREx-HEK293-mGPRC6A cells were seeded into T75 flasks at 70% confluency. Cells were transfected with 15μg of plasmid DNA (Gαq or GαqG66D) with Lipofectamine LTX according to manufacturer's instructions, then incubated for 24h at 37°C in 5% CO2. Cells were plated into 96-well plates (10^5 cells/well) and equilibrated at 37°C in 5% CO2 for 4-6h to adhere, whereupon cells were serum starved overnight at 37°C in 5% CO2. For the assay, cells were washed twice in Ca^2+ assay buffer (150 mM NaCl, 2.6 mM KCl, 1.2 mM MgCl2, 10 mM dextrose, 10 mM HEPES, 2.2 mM CaCl2, 0.5% (w/v) BSA and 4 mM probenecid; pH 7.4). Buffer was then replaced with Ca^2+ assay buffer containing 1μM Fluo-4-AM and incubated for 1h at 37°C in 5% CO2. Cells were washed twice more and replaced with Ca^2+ assay buffer at 37°C. Serial dilutions of test agonists were added by injection in a Flexstation™ (Molecular Devices) and fluorescence was measured at 485nm excitation and 520nm emission wavelengths. Agonist responses were normalised to the peak of response to 100 μM ATP.
(§2) Data for all HEK293 assays represent the mean ± SEM of at least three independent experiments (except cell impedance, n = 2). For GLP-1 release, the data represent mean ± SEM of three to five independent experiments (except for OCN, wash; n = 2). For insulin release assays, data represent the mean ± SEM of three independent experiments (except for islet studies; n = 2). Insulin release data were normalised to the response to vehicle in either low or high [glucose]. Statistical analysis for GLP-1 release data were performed by one-way ANOVA, followed by Sidak’s multiple comparisons test (treating wash / no wash datasets separately). Statistical analyses for insulin release data were performed by two-way ANOVA (with [glucose] and drug treatment as group variables), followed by Sidak’s multiple comparisons test. Where only high [glucose] groups were evaluated, statistical analysis was by one-way ANOVA followed by Sidak’s multiple comparisons test.
On the technique in general: Calcium flux is commonly read through the fluorescence of an indicator in the cells.

In a further assay the test system is 22RV1 / PC-3. To be noted: endogenous; ref [9] (supplement list); cited from earlier work.
Description: as §1

The test system of a further assay is mC6A. Particulars: ref [10] (supplement list); cited from earlier work.
Description: as §1

The next assay has as its system INS-1(832) cells. Description: Label-free cell impedance, INS-1(832) cells. Particulars: Gprc6a-negative, EBSS, 2.8 mM glucose, Fig 7, two-way ANOVA, *P < 0.05, **P < 0.01 vs Vehicle. Format: cell-based, rat. On the procedure: For INS-1 cells, 100 μl of medium (RPMI 1640 no glucose, 10% FBS, 55 μM β-mercaptoethanol, 1 mM sodium pyruvate, 10 mM HEPES, 100 U/ml penicillin, 100 μg/ml streptomycin, 11.1 mM glucose) was added per well to an E-plate 96 and a background reading taken. Cells were seeded at 2 x 10^4 / well and the plates incubated in the instrument for 48 h. On the day of the experiment, media was changed to EBSS buffer (180 μl; 2.8 mM glucose, 1.8 mM CaCl2, 5.3 mM KCl, 0.8 mM MgSO4, 117 mM NaCl, 26 mM NaHCO3, 1 mM NaH2PO4). After 2 h incubation, cells were stimulated with 20 μl test compound (10 x final) prepared in the same buffer. Data capture and analysis were as for HEK293 cells.

A further assay has as its system GLUTag cells. Description: GLP-1 release from GLUTag cells. Type of assay: cell-based, murine. Particulars: 0.01–10 ng/ml; with or without cell washing; 2 h; Fig 6A; listed as Human synthetic OCN. On the procedure: Intestinal L-cell model GLUTag cells were seeded in 24-well plates coated with Matrigel and incubated for 6 days in DMEM with 10% FBS, 100 U/ml penicillin, 100 μg/ml streptomycin at 37°C in 5% CO2 and grown for 4–5 days. Where indicated, cells were washed (1 or 2 x 1h) with Krebs-HEPES buffer (20 mM HEPES, 118 mM NaCl, 4.7 mM KCl, 1.2 mM MgSO4, 5 mM NaHCO3, 1.2 mM KH2PO4, 2.5 mM CaCl2, 5.5 mM glucose, 0.2% BSA (w/v), pH 7.2) containing vildagliptin (300 μM) prior to addition of test compounds in the same buffer. After 2 h incubation at 37°C in 5% CO2, the supernatant was recovered and centrifuged at 500 rpm for 5 min. Where used, NPS-2143 pre-treatment was for 30 min.
GLP-1 content in the cell supernatant was measured by ELISA (EGLP-35K, Millipore), according to manufacturer’s instructions after overnight incubation of 15 μl supernatant in 100 μl Krebs-HEPES buffer at 4°C. After 5 x washes, 200 μl of detection conjugate was added and incubated for 2 h at RT. After 3 x washes the reaction was developed with 200 μl of diluted substrate (1:200) for 20 min and terminated by addition of 50 μl stop solution. After 5 min, fluorescence was then measured using 355 nm excitation and 460 nm emission, transforming the obtained signal into pmol GLP-1/well/ml and corrected for GLUTag cell protein content as determined using the method of Bradford (1976).
as §2, with “Concentration-response data were analysed using a three or four parameter logistic function (Motulsky & Christopoulos, 2004) to generate estimates of agonist potency (LogEC50). Data” for “Data”

The subject of assay [2] is GPRC6A. To be noted: HEK293, mouse GPRC6A with human OCN; ref [11]; cited from earlier work. The text has this: Additional interest in GPRC6A has emerged due to several studies reporting that it mediates the metabolic and endocrine effects of the de-carboxylated form of the osteoblast-derived peptide, osteocalcin (OCN).

Entries after “also recorded” stand apart in the source; their conditions may differ. Bridge positions count the residues as written; N and C are the ends. Ends that are not written are not given here. Some results are limits rather than exact numbers.

Regarding `[Ca+2].[Cl-].[Cl-]` [CaCl2], the SRE-reporter gene response entry in the assay on GPRC6A [1] was “pERK1/2 – response to Ca^2+, Mg^2+, Gd^3+, Al^3+, NPS R568 SRE-reporter gene – response to CaCl2, SrCl2, MgCl2, GdCl3 and OCN”.

Regarding `[Cl][Gd]([Cl])[Cl]` [GdCl3], in the assay with GPRC6A [1], the SRE-reporter gene response result was “pERK1/2 – response to Ca^2+, Mg^2+, Gd^3+, Al^3+, NPS R568 SRE-reporter gene – response to CaCl2, SrCl2, MgCl2, GdCl3 and OCN”.

As to `NC(=O)CC[C@H](N)C(=O)O` [L-glutamine], on mGPRC6A (mouse GPRC6A), the EC50 (as a rule, the midpoint of the concentration-response curve) was greater than 1000 µM and the “activity in calcium mobilisation assays” value is “little or no activity”.

For the molecule `N[C@@H](Cc1c[nH]cn1)C(=O)O` [L-histidine], at mGPRC6A (mouse GPRC6A), the half-maximal effective concentration (EC50) is greater than 1000 µM and the “activity in calcium mobilisation assays” value is listed as “little or no activity”.

Turning to `CC(C)[C@H](N)C(=O)O` [L-valine], on mGPRC6A (mouse GPRC6A), the EC50 is greater than 1000 µM and the “activity in calcium mobilisation assays” value is recorded as “little or no activity”.

Turning to `[Cl-].[Cl-].[Mg+2]` [MgCl2], the SRE-reporter gene response entry in the assay with GPRC6A [1] is “pERK1/2 – response to Ca^2+, Mg^2+, Gd^3+, Al^3+, NPS R568 SRE-reporter gene – response to CaCl2, SrCl2, MgCl2, GdCl3 and OCN”.

For `COc1cccc([C@@H](C)NCCCc2ccccc2Cl)c1` [NPS R568], in the assay with GPRC6A [1], the pERK1/2 response entry is “pERK1/2 – response to Ca^2+, Mg^2+, Gd^3+, Al^3+, NPS R568 SRE-reporter gene – response to CaCl2, SrCl2, MgCl2, GdCl3 and OCN”.

On to `C[C@]1(O)CC[C@H]2[C@@H]3CCC4=CC(=O)CCC4=C3C=C[C@@]21C` [R1881], for which the “PSA, Runx2 expression response” value in the assay with 22RV1 / PC-3 was “pERK1/2 – response to Ca^2+, ZnCl2, OCN, Arginine, Testosterone-BSA Proliferation – response to Ca^2+, OCN PSA, Runx2 expression – response to OCN, Arg, R1881 Chemotaxis (22RV1) – response to Ca^2+, OCN”. In the assay with mC6A, the SRE-reporter gene response entry is given as “pERK1/2 – response to Testosterone-BSA, R1881 SRE-reporter gene – response to R1881, Ca^2+” and the pERK1/2 response entry is “pERK1/2 – response to Testosterone-BSA, R1881 SRE-reporter gene – response to R1881, Ca^2+”.

As for `[Cl-].[Cl-].[Sr+2]` [SrCl2], the SRE-reporter gene response entry with GPRC6A [1] is “pERK1/2 – response to Ca^2+, Mg^2+, Gd^3+, Al^3+, NPS R568 SRE-reporter gene – response to CaCl2, SrCl2, MgCl2, GdCl3 and OCN”.

On to “YLYQWLGAPVPYPDPLEPRREVCELNPDCDELADHIGFQEAYRRFYGPV-NH2/-COOH (disulfide) [human synthetic OCN, synthetic de-carboxylated human osteocalcin, Federation Bioscience]”, for which the “change in cell impedance (cell index)” value in the assay on INS-1(832) cells (listed as synthetic human OCN) is “significant changes in cell impedance; also recorded: Concentration-dependent increases in cell index”. The “GLP-1 release, OCN” value in the assay with GLUTag cells was “did not significantly modulate GLP-1 release”.

“human OCN: in b69: synthetic human OCN of Fig 7; in b64: human OCN of ref 11 (YLYQWLGAPVPYPDPLEPRREVCELNPDCDELADHIGFQEAYRRFYGPV; disulfide 23-29 (inferred); not fully specified; printed as YLYQWLGAPVPYPDPLEPRREVCELNPDCDELADHIGFQEAYRRFYGPV-NH2/-COOH; ends not checked; UniProt P02818 52-100, looked up)”: the “change in cell impedance (cell index)” value with INS-1(832) cells is recorded as “significant, concentration-dependent activity”. Besides, the “OCN concentration stimulating cAMP accumulation” value with GPRC6A [2] was 60 ng/mL.

As for “mouse OCN: in b69: synthetic mouse OCN of Fig 7 (GSPEFYLGASVPSPDPLEPTREQCELNPACDELSDQYGLKTAYKRIYGITI; ends and bridges not checked; cysteine pairing not given here)”, the “change in cell impedance (cell index)” value with INS-1(832) cells is “significant, concentration-dependent activity”.
